# Measured values as given in PubChem BioAssay AID488788 (Broad Institute, 2010).
# Results filed as inconclusive are left out. The source made the active and inactive calls. How the calls were made is not given here.
# Target: CAAX prenyl protease 2 (Saccharomyces cerevisiae (strain ATCC 204508 / S288c)) (UniProt Q03530)
# Experiment: Rce1p protease inhibitors, dose response, biochemical, plate reader, cherry-pick (AID 488788)
# Conditions: Rce1p enzyme activity
# Chain of CAAX prenyl protease 2 (Saccharomyces cerevisiae (strain ATCC 204508 / S288c)) (Q03530 whole entry, looked up): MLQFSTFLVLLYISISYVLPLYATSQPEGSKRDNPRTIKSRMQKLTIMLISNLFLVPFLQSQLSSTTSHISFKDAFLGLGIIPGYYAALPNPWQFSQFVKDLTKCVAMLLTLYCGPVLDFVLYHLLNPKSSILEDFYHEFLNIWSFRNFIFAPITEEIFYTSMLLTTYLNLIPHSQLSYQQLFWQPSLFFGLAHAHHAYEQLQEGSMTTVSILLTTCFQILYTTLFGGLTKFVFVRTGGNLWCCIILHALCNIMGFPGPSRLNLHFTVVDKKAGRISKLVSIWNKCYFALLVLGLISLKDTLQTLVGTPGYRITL
row,AC50,Compound
1,> 10 µM (inactive),COC(C/C=C\C(=O)[C@H](C)OCc1ccccc1)OC

# Same assay, conditions: Rce1p enzyme activity, at 10 µM (top of the series)
row,Compound,"activity change, negative = inhibition"
1,Cc1c(C)c2ccc(OC(C)C(=O)NCCCN3CCOCC3)c(C)c2oc1=O (configuration not stated),inactive
2,CCN(C(=O)COC(=O)c1cc(-c2cccs2)nc2ccccc12)C1CCS(=O)(=O)C1 (configuration not stated),inactive
3,CC(C)CNC(=O)Nc1ccc(F)c(Cl)c1,inactive
4,CCc1nc(Nc2ccncc2)c2oc3ccccc3c2n1,inactive
5,COc1ccc(C(=O)/C=C/c2ccc(OC)cc2OC)c(O)c1,inactive
6,Cc1ccc(C(=O)N/C(=C/c2ccco2)C(=O)Nc2cccc(C(=O)O)c2)cc1,inactive
7,CCN(CC)CCCNC(=O)CCc1c(C)n(CC)c2cc(-c3ccccc3OC)nn2c1=O,inactive
8,COc1ccc2c(c1)cc(C(=O)N[C@@H](CCSC)C(=O)N1CCC(C(=O)O)CC1)n2C,inactive
9,Cc1ccc(NS(=O)(=O)c2ccc(NC(=O)N3CCCCC3)cc2)cc1,inactive
10,COc1cccc(-c2csc(N3CCN(C(=O)NC45CC6CC(CC(C6)C4)C5)CC3)n2)c1,inactive
11,C/C(CC(=O)NCc1ccco1)=N\NC(=O)c1ccc([N+](=O)[O-])cc1Cl,inactive
12,C/C(CC1(O)C(=O)Nc2ccccc21)=N\O (configuration not stated),inactive
13,O=C(O)c1ccc2cccc(Cl)c2c1O,inactive
14,COc1ccc(OC)c(NC(=O)c2cc3oc4ccccc4c3cc2O)c1,inactive

# Second part, the compound after the results:
row,"activity change, negative = inhibition",Compound
1,inactive,CC(=O)N1c2ccc([N+](=O)[O-])cc2NC(=O)CC1C (configuration not stated)
2,inactive,O=C(Nc1ccccc1)n1ccc(-c2ccc(-n3ccnc3)cc2)n1
3,inactive,CC(C)c1ccc(NC(=O)COc2nncc3ccccc23)cc1
4,inactive,O=C1NC2(C=Cc3c(ccc4ccccc34)O2)Oc2ccccc21 (configuration not stated)
5,inactive,COc1cccc(-c2nc(C#N)c(N3CCN(C(=O)c4ccco4)CC3)o2)c1
6,inactive,COc1ccc(-c2cc3ccccc3n2CC(O)CNCCO)cc1 (configuration not stated)
7,inactive,COC(C[C@@H]1O[C@@H]1C(=O)[C@@H](C)OCc1ccccc1)OC
8,inactive,COC(=O)C(Cc1ccccc1)OS(N)(=O)=O (configuration not stated)
9,inactive,CCCCn1c(-c2sccc2C)n[nH]c1=S
10,inactive,CSc1nc(NCC(C)O)c2c3c(sc2n1)CN(C)CC3 (configuration not stated)
11,inactive,Cc1nc(N2CCOCC2)c2cc(-c3ccccc3)sc2n1
12,inactive,Cc1cc(N/N=C/c2ccc(O)c(C)c2O)nc(-c2ccccc2O)n1
